Measurements published in ChEMBL document CHEMBL1201862, “PubChem BioAssay data set” (2004).
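Test compounds were applied to cells in 96-well plates for 48 hours at 5 doses. At the GI50, growth is halved.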 The source made the active and inactive calls. Rule as the data show it: active = GI50 up to about 1.1 µM and inactive = higher.

Key:
Experiment in all cases: NCI tumour cell line growth inhibition, 48 h
[1] = tested on: 786-0
[2] = tested on: ACHN
[3] = tested on: CCRF-CEM
[4] = tested on: HCT-116
[5] = tested on: HCT-15
[6] = tested on: K562
[7] = tested on: KM12
[8] = tested on: LOX IMVI
[9] = tested on: MOLT-4
[10] = tested on: NCI-H226
[11] = tested on: NCI-H23
[12] = tested on: OVCAR-8
[13] = tested on: SF-268
[14] = tested on: SN12C
[15] = tested on: SNB-75
[16] = tested on: UO-31
[17] = tested on: HCC 2998

`CCN(CC)Cc1cc(Nc2c3ccccc3nc3c4ccccc4n(C)c23)ccc1O` was tested, and the GI50 [1] was 3.76 µM (inactive), the GI50 [2] was 11.2 µM (inactive) and the GI50 [3] was 2.05 µM (inactive). For the same compound, the GI50 [4] was 7.16 µM (inactive), the GI50 [5] was 8.85 µM and the GI50 [6] was 2.51 µM (inactive). For the same compound, the GI50 [7] was 7.73 µM (inactive), the GI50 [8] was 2.83 µM (inactive) and the GI50 [9] was 2.77 µM (inactive). The GI50 [10] was 29.2 µM (inactive), the GI50 [11] was 15.1 µM (inactive) and the GI50 [12] was 9.25 µM (inactive). For the same compound, the GI50 [13] was 16.6 µM (inactive), the GI50 [14] was 13.9 µM (inactive) and the GI50 [15] was 13.6 µM (inactive). The GI50 [16] was 9.95 µM (inactive).

For `CCCCCCCCCCCCCCCCCCOCC1(COP(=O)([O-])OCC[N+](C)(C)C)CCCO1` (centres undefined), the GI50 [1] was 3.73 µM (inactive), the GI50 [2] was 6.37 µM (inactive) and the GI50 [3] was 2.89 µM (inactive). The GI50 [17] was 1.89 µM (inactive), the GI50 [4] was 10.1 µM (inactive) and the GI50 [6] was 16.4 µM (inactive). For the same compound, the GI50 [7] was 1.39 µM (inactive), the GI50 [8] was 6.43 µM (inactive) and the GI50 [9] was 2.2 µM (inactive). The GI50 [10] was 5.01 µM (inactive), the GI50 [11] was 16.8 µM (inactive) and the GI50 [12] was 11.2 µM (inactive). For the same compound, the GI50 [13] was 5.87 µM (inactive), the GI50 [14] was 2.2 µM (inactive) and the GI50 [15] was 5.56 µM (inactive). For the same compound, the GI50 [16] was 10.2 µM (inactive).

With `CC1CC2C3CCC4=CC(=O)C=CC4(C)C3(F)C(O)CC2(C)C1(O)C(=O)CO.Cc1cc(NS(=O)(=O)c2ccc(/N=N\c3cc(/N=N/c4ccc(S(=O)(=O)Nc5cc(C)nc(C)n5)cc4)c(OC(=O)C(Cl)Cl)c4cccc(NC(=O)C(Cl)Cl)c34)cc2)nc(C)n1` the GI50 [1] was 18 µM (inactive), the GI50 [2] was 19.5 µM (inactive) and the GI50 [17] was 18.4 µM (inactive). For the same compound, the GI50 [4] was 34.3 µM (inactive), the GI50 [5] was 15.6 µM and the GI50 [6] was 30.6 µM (inactive). The GI50 [7] was 16.6 µM (inactive), the GI50 [8] was 19.2 µM (inactive) and the GI50 [9] was 27.4 µM (inactive). The GI50 [10] was 22.2 µM (inactive), the GI50 [11] was 30.3 µM (inactive) and the GI50 [12] was 22.9 µM (inactive). The GI50 [13] was 26.4 µM (inactive), the GI50 [14] was 12.6 µM (inactive) and the GI50 [15] was 42.8 µM (inactive). For the same compound, the GI50 [16] was 19.8 µM (inactive).

`CCN(CC)c1c(C(=O)/C=C/c2ccccc2)c(-c2ccccc2)nn(C)c1=O` was tested, and the GI50 [1] was 7.31 µM (inactive), the GI50 [2] was 8.51 µM (inactive) and the GI50 [3] was 2.2 µM (inactive). The GI50 [6] was 2.52 µM (inactive), the GI50 [7] was 4.18 µM (inactive) and the GI50 [8] was 3.55 µM (inactive). The GI50 [9] was 1.66 µM (inactive), the GI50 [10] was 93.1 µM (inactive) and the GI50 [12] was 5.37 µM (inactive). The GI50 [13] was 5.98 µM (inactive), the GI50 [14] was 4.68 µM (inactive) and the GI50 [16] was > 100 µM (inactive).

With `Cc1cc2c(=O)cc(-c3ccc(C(=O)O)cc3)oc2c(C(=O)O)c1C` the GI50 [1] was > 100 µM (inactive), the GI50 [2] was > 100 µM (inactive) and the GI50 [3] was > 100 µM (inactive). The GI50 [17] was > 100 µM (inactive), the GI50 [4] was > 100 µM (inactive) and the GI50 [5] was greater than 100 µM. The GI50 [6] was > 100 µM (inactive), the GI50 [7] was > 100 µM (inactive) and the GI50 [8] was > 100 µM (inactive). For the same compound, the GI50 [9] was > 100 µM (inactive), the GI50 [10] was > 100 µM (inactive) and the GI50 [11] was > 100 µM (inactive). For the same compound, the GI50 [12] was > 100 µM (inactive), the GI50 [14] was > 100 µM (inactive) and the GI50 [15] was > 100 µM (inactive). The GI50 [16] was > 100 µM (inactive).

For `CCC1OCCN1C(C)C` (centres undefined), the GI50 [1] was > 100 µM (inactive), the GI50 [2] was > 100 µM (inactive) and the GI50 [3] was > 100 µM (inactive). The GI50 [17] was > 100 µM (inactive), the GI50 [4] was 89.9 µM (inactive) and the GI50 [5] was 81.1 µM. For the same compound, the GI50 [6] was > 100 µM (inactive), the GI50 [7] was > 100 µM (inactive) and the GI50 [8] was > 100 µM (inactive). The GI50 [9] was > 100 µM (inactive), the GI50 [11] was 32.9 µM (inactive) and the GI50 [12] was > 100 µM (inactive). The GI50 [13] was > 100 µM (inactive), the GI50 [14] was > 100 µM (inactive) and the GI50 [16] was 96.6 µM (inactive).

For `COc1ccc(Br)c(N/N=C2\CCCNC2=O)c1`, the GI50 [1] was > 100 µM (inactive), the GI50 [2] was 40.4 µM (inactive) and the GI50 [3] was > 100 µM (inactive). The GI50 [17] was > 100 µM (inactive), the GI50 [4] was > 100 µM (inactive) and the GI50 [5] was greater than 100 µM. For the same compound, the GI50 [6] was > 100 µM (inactive), the GI50 [7] was > 100 µM (inactive) and the GI50 [8] was > 100 µM (inactive). For the same compound, the GI50 [9] was 69 µM (inactive), the GI50 [10] was > 100 µM (inactive) and the GI50 [11] was > 100 µM (inactive). For the same compound, the GI50 [12] was > 100 µM (inactive), the GI50 [14] was > 100 µM (inactive) and the GI50 [15] was 23.1 µM (inactive). For the same compound, the GI50 [16] was 32.1 µM (inactive).

With `C[C@]12Cc3cn[nH]c3C(=O)C1CC[C@@H]1C2CC[C@@]2(C)C1CC[C@@H]2O` (some centres undefined) the GI50 [1] was > 100 µM (inactive), the GI50 [2] was > 100 µM (inactive) and the GI50 [3] was > 100 µM (inactive). The GI50 [4] was > 100 µM (inactive), the GI50 [5] was greater than 100 µM and the GI50 [6] was > 100 µM (inactive). For the same compound, the GI50 [7] was > 100 µM (inactive), the GI50 [8] was > 100 µM (inactive) and the GI50 [9] was > 100 µM (inactive). The GI50 [10] was > 100 µM (inactive), the GI50 [11] was > 100 µM (inactive) and the GI50 [12] was > 100 µM (inactive). For the same compound, the GI50 [13] was > 100 µM (inactive), the GI50 [14] was > 100 µM (inactive) and the GI50 [15] was > 100 µM (inactive). For the same compound, the GI50 [16] was > 100 µM (inactive).

With `COC(=O)/N=C(\NC(=O)OC)Nc1ccc(Oc2ccccc2)cc1NC=O` the GI50 [1] was 0.483 µM (active), the GI50 [2] was 0.881 µM (active) and the GI50 [3] was 0.692 µM (active). The GI50 [17] was 0.968 µM (active), the GI50 [4] was 0.49 µM (active) and the GI50 [6] was 0.265 µM (active). The GI50 [7] was 0.466 µM (active), the GI50 [8] was 1.97 µM (inactive) and the GI50 [9] was 0.836 µM (active). The GI50 [10] was 0.977 µM (active), the GI50 [11] was 0.824 µM (active) and the GI50 [12] was 0.593 µM (active). For the same compound, the GI50 [13] was 0.673 µM (active), the GI50 [14] was 1.58 µM (inactive) and the GI50 [15] was 0.421 µM (active). For the same compound, the GI50 [16] was 0.871 µM (active).
